Results as given in ChEMBL document CHEMBL1138988, “Assessment of in vitro and in vivo activities in the National Cancer Institute's anticancer screen with respect to chemical structure, target specificity, and mechanism of action” (2006).
Active and inactive are the calls of the source. The rule behind the calls is not given here.

What was measured:
[1] = tested on: Panel NCI-60 (60 carcinoma cell lines); assay: Antiproliferative activity against NCI60 cell line; assay type: functional, Homo sapiens
Mus musculus = assay: Activity against NCI60 cell line xenograft in nude mouse by HF assay; assay type: functional

Row | SMILES | pGI50 [1] | Activity (Mus musculus)
1 | O=C(OC12CC3CC(CC(C3)C1)C2)c1ccc(NCc2cc(O)ccc2O)cc1 | 5.44 | 10.83
2 | COc1cccc2c1C(=O)c1c(O)c3c(c(O)c1C2=O)CC(O)(C(=O)CO)CC3OC1CC(N)C(O)C(C)O1 (stereo unspecified) | 6.53 | 20.67
3 | CCC1(O)C(=O)OCc2c1cc1n(c2=O)Cc2cc3ccccc3nc2-1 (stereo unspecified) | 5.99 | 13.67
4 | N/C(S)=N/N=C/c1ccc(O)cn1 | 5.92 | 15
5 | CCCCCCC(O)C(O)CCC(O)C1CCC(CCCCC(O)CC2=CC(C)OC2=O)O1 (stereo unspecified) [ACETOGENINS] | 5.53 | inactive
6 | COc1cc2c(c(OC)c1OC)-c1ccc(OC)c(=O)cc1[C@@H](NC(C)=O)CC2 [COLCHICINE] | 5.8 | 19.6
7 | Nc1ccn([C@@H]2O[C@H](CO)[C@@H](O)[C@@H]2O)c(=O)n1 [CYTARABINE] | 5 | 11
8 | CN(Cc1cnc2nc(N)nc(N)c2n1)c1ccc(C(=O)N[C@@H](CCC(=O)O)C(=O)O)cc1 [METHOTREXATE] | 5.55 | 16.8
